According to patent US11136292B2, “Plant growth regulator compounds” (SYNGENTA PARTICIPATIONS AG, priority 2016, dated 2021):
Read-outs that look alike come from different tables or passages of the source.

System: NK Falkone 2015 corn seeds
Experiment: Corn seed germination under cold stress (Example B1)
Type: in vivo
Details: Zea mays, cold stress 15° C.; for change in vivo at 2 µM: Rate 2 μM; for change in vivo at 10 µM: Rate 10 μM; for change in vivo at 50 µM: Rate 50 μM; for change in vivo at 250 µM: Rate 250 μM; for change in vivo at 0.4 µM: Rate 0.4 μM
Description: The effect of compounds of formula (I) on the germination of NK Falkone 2015 corn seeds under cold stress was evaluated as follows. NK Falkone corn seeds were sorted by size using 2 sieves, one excluding very big seeds and the other with round holes of 8 to 9 mm diameter. The seeds retained by the latter sieve were used for the germination test. The corn seeds were placed in 24 well plates (each plate was considered as one experimental unit or replicate). Germination was initiated by the addition of 250 μl of distilled water containing 0.5% DMSO per well as a means for compound solubilization. 8 replicates (ie, 8 plates) were used for each treatment characterization. Plates were sealed using seal foil (Polyolefin Art. Nr. 900320) from HJ-BIOANALYTIK. All plates were placed horizontally on trolleys in a climatic chamber at 15° C. The experiment was laid out in a completely randomized design in climatic chamber with 75% Relative Humidity. Foils were pierced, one hole per well using a syringe after 72 hours for experiments performed at 15° C.
Germination was followed over time by taking photographs at different time points. Image analysis was performed automatically with a macro which was developed using the Image J software. A dynamic analysis of germination was carried out by fitting a logistic curve. Three parameters were calculated from the logistic curve: the T50; the slope and the plateau. All three parameters have a high agronomical relevance and are key requirements to ensure a good early crop-establishment. All the values are expressed as percentages compared to an untreated control. All the three parameters are calculated considering 8 replicates and the kinetic parameters are separately determined for each germination curve. Data in bold indicate germination enhancing statistically significant differences between treated seeds and untreated control (p<0.05). The T50 corresponds to the time needed for half of the seed population to germinate. Higher negative %-values indicate faster germination. The slope indicates how synchronous the germination of the seed population is. Positive values indicate steeper curve; the steeper the curve, the better and more uniform the germination is.

[1] = slope of logistic germination curve, read-out: Slope (% vs control)
[2] = time for half of seeds to germinate, control T50 = 110 hours, read-out: T50 (% vs control)

Row | SMILES | change in vivo at 2 µM [1] | change in vivo at 2 µM [2] | change in vivo at 10 µM [1] | change in vivo at 10 µM [2] | change in vivo at 50 µM [1] | change in vivo at 50 µM [2] | change in vivo at 250 µM [1] | change in vivo at 250 µM [2] | change in vivo at 0.4 µM [1] | change in vivo at 0.4 µM [2]
1 | CCOC(=O)/C(=C/OC1C=C(C)C(=O)O1)C1CCc2c1cccc2C(F)(F)F (centres unmarked) [Compound I-70] | 9% | -2.5% | 18.4% | -0.2% | 87.9% | -6.8% | 115% | -8.6% |  | 
2 | CCOC(=O)/C(=C/OC1OC(=O)C(C)=C1C)C1CCc2ccc(C(F)(F)F)cc21 (centres unmarked) [Compound I-73] | -1.1% | -3.5% | 14.2% | -6.3% | 57.8% | -7.8% | 54.1% | -9.2% |  | 
3 | CCOC(=O)/C(=C/OC1OC(=O)C(C)=C1C)C1CCCc2ccccc21 (centres unmarked) [Compound I-75] | 4.9% | -3.5% | 5.6% | -2.6% | 58.4% | -6.5% | 44.2% | -5% |  | 
4 | CCOC(=O)/C(=C/OC1C=C(C)C(=O)O1)C1Cc2ccccc21 (centres unmarked) [Compound I-76] | -5% | -0.7% | 50.6% | -6.4% | 122% | -8.8% |  |  | -5.6% | -0.5%
5 | CCOC(=O)/C(=C/OC1OC(=O)C(C)=C1C)C1CCc2ccsc21 (centres unmarked) [Compound I-83] | 6.5% | -3% | 34.1% | -2.2% | 32.6% | -4.8% | 157% | -8.6% |  | 
6 | CCOC(=O)/C(=C/OC1C=C(C)C(=O)O1)C1CCC[C@@]2(C)CCC12 (some centres unmarked) [Compound I-86] | 17.1% | 0.2% | 20.2% | -2.7% | 138% | -9.7% | 150% | -11.2% |  | 
7 | CCOC(=O)/C(=C/OC1C=C(C)C(=O)O1)C1CCOc2ccccc21 (centres unmarked) [Compound I-90] | -10% | 3.2% | -0.32% | 2.8% | 4.6% | 0.45% | 83.6% | -6.7% |  | 
8 | CCOC(=O)/C(=C/OC1OC(=O)C(C)=C1C)C1CCOc2ccccc21 (centres unmarked) [Compound I-91] | -15.3% | 2.5% | -5.4% | 2.7% | 18.8% | -1.5% | 67.4% | -6.1% |  | 
9 | CCOC(=O)/C(=C/OC1OC(=O)C(C)=C1C)C1COc2ccccc21 (centres unmarked) [Compound I-95] | -2% | 1.6% | -13.9% | 1.6% | 2.7% | 0.6% | 81.5% | -6.7% |  | 
10 | CC1=CC(O/C=C2/C(=O)OC3c4ccccc4CC23)OC1=O (centres unmarked) [Prior art 1] | -0.7% | -1.5% | -11.3% | -0.1% | 6.2% | -1.85% | 36.3% | -3.4% |  | 
11 | CC1=C(C)C(O/C=C2/C(=O)OC3c4ccccc4CC23)OC1=O (centres unmarked) [Prior art 2] | -1.3% | -1.5% | 1.4% | 1.7% | 9.6% | -1.6% | 15.8% | -2.1% |  | 
12 | CC1=CC(O/C=C2/C(=O)OC3Cc4ccccc4C23)OC1=O (centres unmarked) [Prior art 3] | -0.7% | 1.6% | 2.2% | 0% | 4% | -0.8% | 14.1% | -0.5% |  | 
13 | COC(=O)/C(=C/OC1C=C(C)C(=O)O1)c1ccccc1 (centres unmarked) [Prior art 4] | -7.7% | 1.2% | 14.9% | -3.4% | -11.4% | 2.4% | 4.1% | 0.1% |  | 
